Assay results: publication PMC11284088, “Synthesis and biochemical characterization of naphthoquinone derivatives targeting bacterial histidine kinases” (The Journal of Antibiotics, 2024)
Entries after “also recorded” stand apart in the source; their conditions may differ. Like-named read-outs stand apart in the source and are kept apart here.

What was measured:
[1] = target: T1, EnvZ (Escherichia coli, UniProt P0AEJ4); experiment: Inhibition of EnvZ autophosphorylation; format: biochemical, Escherichia coli K12
T1 construct: pETEcEnvZ(223-450); His6 (C); made in house; host or cells: E. coli BL21(DE3)
T1 sequence (P0AEJ4 223-450): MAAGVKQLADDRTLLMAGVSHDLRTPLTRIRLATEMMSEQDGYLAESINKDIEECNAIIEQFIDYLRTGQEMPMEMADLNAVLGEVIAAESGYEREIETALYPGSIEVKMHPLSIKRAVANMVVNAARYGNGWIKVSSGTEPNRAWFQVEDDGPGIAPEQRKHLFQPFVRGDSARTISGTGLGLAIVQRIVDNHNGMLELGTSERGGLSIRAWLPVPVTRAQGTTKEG
Experimental: (§1) Autophosphorylation of WalK was conducted at 0.5 or 1 µM in a reaction mixture comprising 50 mM Tris-HCl (pH 8.5), 100 mM KCl, 5 mM MgCl2, 100 mM NH4Cl, 5% DMSO, and 40 µM ATP. The total reaction volume was 40 µl, and the incubation lasted for 30 min at 25 °C. To terminate the reaction, 40 µl of 2 × SDS-PAGE sample buffer was added, followed by a 10-min incubation at 37 °C. Subsequently, SDS-PAGE (10% acrylamide) was performed, and the samples were subjected to Western blotting using a PVDF membrane (Bio-Rad 1620177). The primary antibody used was anti-N3-phosphohistidine antibody (clone SC56-2) (EDM Millipore Corp), and the secondary antibody was goat anti-rabbit IgG-HRP (Abcam). A 2% bovine serum albumin (Sigma-Aldrich) solution served as the blocking reagent. Signals originating from phosphorylated HKs were detected using the HRP substrate (Immobilon Western Chemiluminescent HRP substrate, Millipore) and the Multi Imager II Multi Box (Bio Tools). Signal intensities were quantified with Image Analysis Software CS Analyzer 4 (ATTO). IC50 values (50% inhibitory concentrations) were determined using Prism 7 software (GraphPad).
(§2) In the assessment of naphthoquinone derivatives, the initial screening for inhibitory activity against WalK autophosphorylation was conducted at 50 or 100 µg ml^−1. Compounds displaying inhibitory activity were further examined to ascertain their IC50 values against WalK. For the chosen compounds, inhibition against EvgS, EnvZ, PhoQ, and CpxA HKs was also assessed. These reactions involved the use of 1 µM HK, 40 µM ATP, and a 30 min incubation at 25 °C.

[2] = target: T2, WalK (Bacillus subtilis, UniProt Q45614); experiment: Inhibition of WalK autophosphorylation; format: biochemical; parameters: key to WalK: WalK + inhibitory effect against WalK; conditions: for IC50: against WalK from B. subtilis, autophosphorylation, N.I. = no inhibition, read-out: IC50
T2 construct: His6 (N); made in house; host or cells: E. coli BL21(DE3)
T2 sequence (Q45614 207-611): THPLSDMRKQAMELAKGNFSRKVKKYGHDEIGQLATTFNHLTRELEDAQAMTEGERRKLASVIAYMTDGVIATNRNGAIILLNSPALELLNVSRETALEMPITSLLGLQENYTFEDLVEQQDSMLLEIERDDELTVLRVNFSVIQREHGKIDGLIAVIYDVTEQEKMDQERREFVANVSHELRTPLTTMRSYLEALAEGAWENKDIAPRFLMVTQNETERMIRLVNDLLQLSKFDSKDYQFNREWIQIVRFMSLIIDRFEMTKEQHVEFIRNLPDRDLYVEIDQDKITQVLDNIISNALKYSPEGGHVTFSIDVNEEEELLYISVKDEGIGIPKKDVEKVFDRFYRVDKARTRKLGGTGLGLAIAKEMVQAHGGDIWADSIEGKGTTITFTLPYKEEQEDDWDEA
Experimental: as §1, §2

[3] = target: T3, WalK (207-611, B. subtilis) (Bacillus subtilis, UniProt Q45614); experiment: Affinity selection/mass spectrometry, competition with waldiomycin; format: binding; parameters: key to AS/MS: AS/MS + competitive inhibition of the binding of waldiomycin to WalK; − increased binding of waldiomycin to WalK
T3 construct: His6 (N); made in house; host or cells: E. coli BL21(DE3)
T3 sequence (Q45614 207-611): as above
Experimental: The affinity selection/mass spectrometry (AS/MS) is a method which can detect the binding of small compounds to proteins. This experiment was carried out following a previously established protocol (Fig. 5), with the exception of using Millipore 96-well filter plates (MSBVN1210) instead of MAHAN4510. In the experiment, 1 µM of WalK (207-611, B. subtilis, refer to Table S2) was combined and incubated with 5 µM of waldiomycin and competitor compounds in a reaction buffer. The buffer composition was as follows: 25 mM Tris-HCl (pH 8.0), 50 mM KCl, 50 mM NH4Cl, 5 mM MgCl2, 1 mM DTT, and 0.1% CHAPS. Following the incubation, the mixture was subjected to size-exclusion chromatography via centrifugation to eliminate free compounds. The protein that was eluted was then denatured by adding an equal volume of methanol/0.1% formic acid. The compounds that were subsequently released from the protein were detected using an LC/MS system. The concentrations of waldiomycin were calculated from the value of peak areas using calibration curve that covered the range of 1 nM to 1 µM (R^2 = 0.9991). The concentration of waldiomycin in the eluate of WalK and waldiomycin without competitor was 10.1 nM, and percentages to this value were calculated for other samples.

[4] = tested on: iseA (formerly yoeB); experiment: RT-qPCR of iseA expression in B. subtilis cells; format: cell-based, B. subtilis 168; parameters: key to RT-qPCR: RT-qPCR + iseA gene expression was induced in B. subtilis 168; − no effect
Experimental: In brief, the cells were aerated and grown to an optical density at 660 nm of 0.3–0.4 at 37 °C. After the addition of DMSO or naphthoquinone derivatives, the cultures were further incubated for 5 min, cooled on ice for 1 min, and then harvested by centrifugation (2300 × g, 10 min, 4 °C). The cells were resuspended in 800 µl of RNA Lysis Buffer (SV Total RNA Isolation System, Z3100, Promega), transferred to a screw-capped tube containing 400 mg of glass beads (GB-01, TOMY), and disrupted using MicroSmash (MS-100, TOMY Medico) at 3000 rpm, 60 s ON/OFF for 6 cycles. RNA was then purified from 175 µl of the supernatant using the SV Total RNA Isolation System, followed by DNase I treatment (Turbo DNA-free^TM Kit, AM1907, Invitrogen) to remove any residual genomic DNA contamination. […] The expression levels of the genes were normalized using the 16S rRNA gene as an internal standard. Each assay was performed at least three times. Statistical analyses were conducted using Tukey’s multiple comparison test (GraphPad Prism 7).

[5] = tested on: B. subtilis 168 strain; experiment: MIC, standard microtiter broth dilution; format: cell-based, Bacillus subtilis; parameters: key to MIC: MIC + antibacterial activity against Bacillus subtilis 168
Experimental: The minimum inhibitory concentrations (MICs) were determined using the standard microtiter broth dilution method, as recommended by the guidelines of the Clinical Laboratory Standards Institute.

[6] = target: T4, EvgS (559–1197) D1009A (Escherichia coli, UniProt P30855, D1009A); experiment: Inhibition of EvgS autophosphorylation; format: biochemical, Escherichia coli K12
T4 construct: EvgS (559–1197) D1009A; His6 (C); made in house; host or cells: E. coli BL21(DE3)
T4 sequence (P30855 559-1197 D1009A): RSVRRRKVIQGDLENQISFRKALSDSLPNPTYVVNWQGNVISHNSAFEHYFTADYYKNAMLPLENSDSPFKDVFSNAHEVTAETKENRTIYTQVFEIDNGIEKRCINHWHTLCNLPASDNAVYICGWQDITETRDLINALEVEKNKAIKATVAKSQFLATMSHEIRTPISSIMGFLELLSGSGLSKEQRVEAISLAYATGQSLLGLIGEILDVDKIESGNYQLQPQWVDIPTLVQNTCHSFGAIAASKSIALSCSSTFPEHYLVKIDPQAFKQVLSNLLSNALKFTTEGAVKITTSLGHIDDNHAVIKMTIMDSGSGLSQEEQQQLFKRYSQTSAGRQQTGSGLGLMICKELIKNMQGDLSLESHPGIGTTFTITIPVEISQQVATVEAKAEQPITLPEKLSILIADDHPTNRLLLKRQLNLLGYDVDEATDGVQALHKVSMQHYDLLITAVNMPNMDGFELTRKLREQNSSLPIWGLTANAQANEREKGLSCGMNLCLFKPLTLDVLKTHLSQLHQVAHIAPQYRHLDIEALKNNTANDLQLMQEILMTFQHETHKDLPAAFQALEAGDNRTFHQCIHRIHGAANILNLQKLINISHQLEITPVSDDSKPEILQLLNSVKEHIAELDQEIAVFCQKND
Experimental: as §1, §2

[7] = target: T5, PhoQ (Escherichia coli, UniProt P23837); experiment: Inhibition of PhoQ autophosphorylation; format: biochemical, Escherichia coli K12
T5 construct: cytoplasmic regions of PhoQ (261-486) and CpxA (188-457); His6 (C); made in house; host or cells: E. coli BL21(DE3)
T5 sequence (P23837 261-486): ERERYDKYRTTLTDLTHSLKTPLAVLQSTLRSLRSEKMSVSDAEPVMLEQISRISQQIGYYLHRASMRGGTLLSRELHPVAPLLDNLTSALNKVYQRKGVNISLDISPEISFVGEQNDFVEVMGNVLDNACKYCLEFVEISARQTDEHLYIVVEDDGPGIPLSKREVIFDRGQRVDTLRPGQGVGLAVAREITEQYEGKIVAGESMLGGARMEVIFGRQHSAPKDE
Experimental: as §1, §2

[8] = tested on: HKs (EvgS, EnvZ, PhoQ, and CpxA); experiment: Inhibition of class I HKs, summary over several HKs; format: biochemical, Escherichia coli K12; parameters: key to HKs: HKs + inhibitory effect against HKs (EvgS, EnvZ, PhoQ, and CpxA)
Experimental: as §1, §2

[9] = target: T6, CpxA (Escherichia coli, UniProt P0AE82); experiment: Inhibition of CpxA autophosphorylation; format: biochemical, Escherichia coli K12
T6 construct: cytoplasmic regions of PhoQ (261-486) and CpxA (188-457); His6 (C); made in house; host or cells: E. coli BL21(DE3)
T6 sequence (P0AE82 188-457): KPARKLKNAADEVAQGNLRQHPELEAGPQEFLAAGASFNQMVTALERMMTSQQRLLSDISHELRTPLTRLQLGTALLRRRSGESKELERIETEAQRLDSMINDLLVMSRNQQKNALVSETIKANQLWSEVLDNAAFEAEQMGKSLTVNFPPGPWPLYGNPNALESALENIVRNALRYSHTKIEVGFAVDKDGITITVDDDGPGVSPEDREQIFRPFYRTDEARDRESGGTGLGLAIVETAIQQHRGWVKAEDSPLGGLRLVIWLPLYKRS
Experimental: as §1, with “The” for “Autophosphorylation of WalK was conducted at 0.5 or 1 µM in a reaction mixture comprising 50 mM Tris-HCl (pH 8.5), 100 mM KCl, 5 mM MgCl2, 100 mM NH4Cl, 5% DMSO, and 40 µM ATP. The”
as §2, with “These reactions involved the use of 1 µM HK, 40 µM ATP, and a 30 min incubation at 25 °C.” left out

[10] = tested on: HKs (EvgS, EnvZ, PhoQ, and CpxA); parameters: key: HKs + inhibitory effect against HKs (EvgS, EnvZ, PhoQ, and CpxA); conditions: summary class; cited from earlier work
[11] = tested on: class I HKs; parameters: method as in PMID 27999439; conditions: including WalK, PhoQ, EnvZ, and CpxA; cited from earlier work
[12] = tested on: B. subtilis 168 strain; parameters: method as in PMID 27999439, PMID 28674376, PMID 26582287; key: MIC + antibacterial activity against Bacillus subtilis 168; conditions: Bacillus subtilis 168, cited from earlier work
[13] = target: T2, WalK; parameters: key: WalK + inhibitory effect against WalK; conditions: summary class; cited from earlier work
[14] = tested on: iseA (formerly yoeB); parameters: method as in PMID 27999439, PMID 28674376, PMID 26582287; key: RT-qPCR + iseA gene expression was induced in B. subtilis 168; − no effect; conditions: summary class, iseA gene expression; cited from earlier work
[15] = Bacillus subtilis, B. subtilis 168 strain grown in LB broth at 37 °C for 18 h, read-out: MIC

For Nc1cccc2c1C(=O)C(Cl)=C(Nc1ccc(O)c(C(=O)O)c1)C2=O [2o, 5-((5-amino-3-chloro-1,4-dioxo-1,4-dihydronaphthalen-2-yl)amino)-2-hydroxybenzoic acid], which IC50 [1] is on record?
The IC50 was 1.3 µM.

What about the IC50 [2] of the same compound?
Its IC50 is 25.9 µM.

And the “inhibitory activity against WalK” value ([2]; in words)?
The value was “weaker”.

What about the WalK ([2]; summary class) of the same compound?
The WalK was “+”.

What about the “effect on the signal of waldiomycin” value ([3]; compound 30 and 100 µM, in words) of the same compound?
The value was “reduced the signal of waldiomycin in a dose-dependent manner”.

And the “signal of waldiomycin compared to only waldiomycin with WalK” value ([3]; compound at 100 µM, waldiomycin 5 µM, WalK 1 µM)?
Its value is “about 10%”.

And the “binding to WalK competitive with that of waldiomycin” value ([3]; in words)?
Its value is “competitive; also recorded: competitively interacted with waldiomycin”.

What about the AS/MS ([3]; summary class, effect on binding of waldiomycin to WalK) of the same compound?
Its AS/MS is “+”.

What about the “expression of iseA” value ([4]; exponentially growing cells, subMIC or MIC levels, 5 min, relative to DMSO control) of the same compound?
The value was “did not change”.

And the RT-qPCR ([4]; summary class, iseA gene expression in B. subtilis 168)?
Its RT-qPCR is “−”.

What about the MIC [5, 15] of the same compound?
The MIC was 16 µg/mL.

And the “antibacterial (antimicrobial) activity against B. subtilis” value ([5]; in words)?
Its value is “weaker”.

And the MIC ([5]; summary class, Bacillus subtilis 168)?
Its MIC is “+”.

What about the IC50 [6] of the same compound?
The IC50 was 0.2 µM.

What about the IC50 [7] of the same compound?
Its IC50 is 0.1 µM.

And the “inhibition of EvgS, EnvZ, PhoQ, and CpxA” value ([8]; in words)?
Its value is “inhibited all four of these HKs”.

And the HKs ([8]; summary class, EvgS, EnvZ, PhoQ, and CpxA)?
Its HKs is “+”.

What about the IC50 [9] of the same compound?
The IC50 was 0.8 µM.

Which results are given for C[C@@H]1O[C@](C)(C(=O)O)OC1/C=C/C=C/C=C/C(=O)O[C@H]1CC[C@H](c2ccc3c(c2O)C(=O)c2ccc4c(c2C3=O)C(=O)[C@@H](O)[C@](C)(O)C4)O[C@@H]1C (stereo partly shown) [Waldiomycin, reference compound]?
IC50 [1]: 33.1 µM; IC50 [2]: 13.1 µM; concentration of waldiomycin in the eluate of WalK and waldiomycin ([3]; without competitor, WalK 1 µM, waldiomycin 5 µM): 10.1 nM; HKs [10]: +; MIC [5, 15]: 8 µg/mL; IC50 [6]: 66.8 µM; inhibition of class I HKs [11]: inhibited 13 class I HKs; IC50 [7]: 10.9 µM; MIC [12]: 8 µg/mL; MIC ([12]; summary class): +; WalK [13]: +; IC50 [9]: 93.9 µM; RT-qPCR [14]: +
